What all share (conditions): pH 7
The target of experiment [1] is Soluble maltase-glucoamylase (Mus musculus, UniProt Q6XK23). As to the kind of experiment: Inhibition Assay (piHA-Dm). Here is the method:
(§1) After kinetic analysis with HPA, piHA-Dm was tested as an inhibitor of ten additional enzymes. The conditions are listed as follows: Agrobacterium faecalis β-glucosidase (2.5 × 10^-4 mg/mL enzyme, 50 mM sodium phosphate pH 7, 4 mM PNP β-gal); Bos taurus β-galactosidase (6.9 × 10^-2 mg/mL enzyme, 50 mM sodium phosphate pH 7, 1 mM PNP β-gal); S. cerevisiae α-glucosidase (5 × 10^-3 mg/mL enzyme, 50 mM sodium phosphate pH 7, 1 mM α-glc); Human maltase-glucoamylase (8.1 × 10^-2 mg/mL enzyme, 50 mM sodium phosphate pH 7, 1 mM α-glc); Mouse maltase-glucoamylase (8.1 × 10^-2 mg/mL enzyme, 50 mM sodium phosphate pH 7, 1 mM α-glc); Butyrivibrio fibrisolvens α-amylase (1.7 × 10^-4 mg/mL enzyme, 50 mM sodium phosphate 100 mM NaCl pH 7, 1 mM CNPG3); Aspergillus oryzae α-amylase (1.9 × 10^-4 mg/mL enzyme, 50 mM sodium phosphate 100 mM NaCl pH 7, 1 mM CNPG3); Porcine pancreatic α-amylase (6.7 × 10^-3 mg/mL enzyme, 50 mM sodium phosphate 100 mM N

Experiment [2] concerns the target Maltase-glucoamylase (Homo sapiens, UniProt O43451). Briefly: Inhibition Assay (piHA-Dm). Here is the method: as §1
Experiment [3] concerns the target T1, Pancreatic alpha-amylase (Sus scrofa, UniProt P00690).
T1 sequence (P00690 whole entry): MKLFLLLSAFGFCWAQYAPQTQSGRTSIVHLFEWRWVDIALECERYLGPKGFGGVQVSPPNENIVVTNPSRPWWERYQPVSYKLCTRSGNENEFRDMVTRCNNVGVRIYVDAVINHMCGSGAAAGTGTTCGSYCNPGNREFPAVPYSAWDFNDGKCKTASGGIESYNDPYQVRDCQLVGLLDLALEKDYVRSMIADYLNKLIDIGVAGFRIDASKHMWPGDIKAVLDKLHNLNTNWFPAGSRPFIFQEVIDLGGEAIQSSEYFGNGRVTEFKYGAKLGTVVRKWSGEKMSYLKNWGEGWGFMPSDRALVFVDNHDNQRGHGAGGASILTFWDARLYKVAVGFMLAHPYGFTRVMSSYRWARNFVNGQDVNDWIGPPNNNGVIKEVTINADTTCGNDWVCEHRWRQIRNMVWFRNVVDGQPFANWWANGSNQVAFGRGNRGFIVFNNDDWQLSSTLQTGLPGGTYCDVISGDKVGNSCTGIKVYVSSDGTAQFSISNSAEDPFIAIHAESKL
Briefly: Inhibition Assay (piHA-Dm). Here is the method: as §1

For experiment [4], the target named is T2, Pancreatic alpha-amylase (Homo sapiens, UniProt P04746).
T2 sequence (P04746 whole entry): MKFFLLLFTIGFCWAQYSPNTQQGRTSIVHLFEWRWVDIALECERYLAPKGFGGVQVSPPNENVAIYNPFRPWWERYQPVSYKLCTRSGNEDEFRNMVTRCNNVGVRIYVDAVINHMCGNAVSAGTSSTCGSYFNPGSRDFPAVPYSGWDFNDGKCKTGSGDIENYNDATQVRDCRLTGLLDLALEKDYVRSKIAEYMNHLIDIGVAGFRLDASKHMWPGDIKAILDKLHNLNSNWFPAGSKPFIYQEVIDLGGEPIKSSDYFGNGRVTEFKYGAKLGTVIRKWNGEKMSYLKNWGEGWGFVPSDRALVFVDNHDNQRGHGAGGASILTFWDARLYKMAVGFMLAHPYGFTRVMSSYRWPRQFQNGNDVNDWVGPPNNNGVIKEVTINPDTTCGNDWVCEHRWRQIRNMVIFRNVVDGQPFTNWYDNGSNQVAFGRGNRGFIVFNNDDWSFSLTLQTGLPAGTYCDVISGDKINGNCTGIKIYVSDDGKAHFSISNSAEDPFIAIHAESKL
Briefly: Inhibition Kinetics Assay. The method, then: The release of 2-chloro-4-nitrophenol resulting from the HPA-catalyzed hydrolysis of 2-chloro-4-nitrophenyl a-maltotrioside (CNPG3) was monitored at 400 nm. Reactions were run at 30 °C in 50 mM NaPi and 100 mM NaCl (pH 7.0). Reactions were monitored over 5 min to measure the initial reaction rate.

Experiment [5] concerns the target T3, Alpha-amylase 1A (Homo sapiens, UniProt P0DUB6).
T3 sequence (P0DUB6 whole entry): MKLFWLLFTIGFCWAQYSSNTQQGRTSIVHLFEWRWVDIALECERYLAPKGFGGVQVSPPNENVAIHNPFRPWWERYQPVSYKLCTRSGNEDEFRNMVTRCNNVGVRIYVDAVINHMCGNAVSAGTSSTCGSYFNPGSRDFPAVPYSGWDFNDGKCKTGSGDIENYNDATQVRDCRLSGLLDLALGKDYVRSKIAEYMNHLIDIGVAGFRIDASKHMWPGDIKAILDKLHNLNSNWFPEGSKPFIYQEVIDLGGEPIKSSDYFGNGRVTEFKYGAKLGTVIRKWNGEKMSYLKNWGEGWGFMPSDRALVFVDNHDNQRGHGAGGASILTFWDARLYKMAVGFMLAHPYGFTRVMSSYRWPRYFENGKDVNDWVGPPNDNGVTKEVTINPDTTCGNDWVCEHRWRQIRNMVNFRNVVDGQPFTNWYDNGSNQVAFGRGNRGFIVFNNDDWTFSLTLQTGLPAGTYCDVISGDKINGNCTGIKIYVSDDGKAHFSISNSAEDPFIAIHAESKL
As to the kind of experiment: Inhibition Assay (piHA-Dm). The method, then:
as §1

Where a SMILES comes first, the peptide text is derived from it.

Sequence of Maltase-glucoamylase (O43451 whole entry): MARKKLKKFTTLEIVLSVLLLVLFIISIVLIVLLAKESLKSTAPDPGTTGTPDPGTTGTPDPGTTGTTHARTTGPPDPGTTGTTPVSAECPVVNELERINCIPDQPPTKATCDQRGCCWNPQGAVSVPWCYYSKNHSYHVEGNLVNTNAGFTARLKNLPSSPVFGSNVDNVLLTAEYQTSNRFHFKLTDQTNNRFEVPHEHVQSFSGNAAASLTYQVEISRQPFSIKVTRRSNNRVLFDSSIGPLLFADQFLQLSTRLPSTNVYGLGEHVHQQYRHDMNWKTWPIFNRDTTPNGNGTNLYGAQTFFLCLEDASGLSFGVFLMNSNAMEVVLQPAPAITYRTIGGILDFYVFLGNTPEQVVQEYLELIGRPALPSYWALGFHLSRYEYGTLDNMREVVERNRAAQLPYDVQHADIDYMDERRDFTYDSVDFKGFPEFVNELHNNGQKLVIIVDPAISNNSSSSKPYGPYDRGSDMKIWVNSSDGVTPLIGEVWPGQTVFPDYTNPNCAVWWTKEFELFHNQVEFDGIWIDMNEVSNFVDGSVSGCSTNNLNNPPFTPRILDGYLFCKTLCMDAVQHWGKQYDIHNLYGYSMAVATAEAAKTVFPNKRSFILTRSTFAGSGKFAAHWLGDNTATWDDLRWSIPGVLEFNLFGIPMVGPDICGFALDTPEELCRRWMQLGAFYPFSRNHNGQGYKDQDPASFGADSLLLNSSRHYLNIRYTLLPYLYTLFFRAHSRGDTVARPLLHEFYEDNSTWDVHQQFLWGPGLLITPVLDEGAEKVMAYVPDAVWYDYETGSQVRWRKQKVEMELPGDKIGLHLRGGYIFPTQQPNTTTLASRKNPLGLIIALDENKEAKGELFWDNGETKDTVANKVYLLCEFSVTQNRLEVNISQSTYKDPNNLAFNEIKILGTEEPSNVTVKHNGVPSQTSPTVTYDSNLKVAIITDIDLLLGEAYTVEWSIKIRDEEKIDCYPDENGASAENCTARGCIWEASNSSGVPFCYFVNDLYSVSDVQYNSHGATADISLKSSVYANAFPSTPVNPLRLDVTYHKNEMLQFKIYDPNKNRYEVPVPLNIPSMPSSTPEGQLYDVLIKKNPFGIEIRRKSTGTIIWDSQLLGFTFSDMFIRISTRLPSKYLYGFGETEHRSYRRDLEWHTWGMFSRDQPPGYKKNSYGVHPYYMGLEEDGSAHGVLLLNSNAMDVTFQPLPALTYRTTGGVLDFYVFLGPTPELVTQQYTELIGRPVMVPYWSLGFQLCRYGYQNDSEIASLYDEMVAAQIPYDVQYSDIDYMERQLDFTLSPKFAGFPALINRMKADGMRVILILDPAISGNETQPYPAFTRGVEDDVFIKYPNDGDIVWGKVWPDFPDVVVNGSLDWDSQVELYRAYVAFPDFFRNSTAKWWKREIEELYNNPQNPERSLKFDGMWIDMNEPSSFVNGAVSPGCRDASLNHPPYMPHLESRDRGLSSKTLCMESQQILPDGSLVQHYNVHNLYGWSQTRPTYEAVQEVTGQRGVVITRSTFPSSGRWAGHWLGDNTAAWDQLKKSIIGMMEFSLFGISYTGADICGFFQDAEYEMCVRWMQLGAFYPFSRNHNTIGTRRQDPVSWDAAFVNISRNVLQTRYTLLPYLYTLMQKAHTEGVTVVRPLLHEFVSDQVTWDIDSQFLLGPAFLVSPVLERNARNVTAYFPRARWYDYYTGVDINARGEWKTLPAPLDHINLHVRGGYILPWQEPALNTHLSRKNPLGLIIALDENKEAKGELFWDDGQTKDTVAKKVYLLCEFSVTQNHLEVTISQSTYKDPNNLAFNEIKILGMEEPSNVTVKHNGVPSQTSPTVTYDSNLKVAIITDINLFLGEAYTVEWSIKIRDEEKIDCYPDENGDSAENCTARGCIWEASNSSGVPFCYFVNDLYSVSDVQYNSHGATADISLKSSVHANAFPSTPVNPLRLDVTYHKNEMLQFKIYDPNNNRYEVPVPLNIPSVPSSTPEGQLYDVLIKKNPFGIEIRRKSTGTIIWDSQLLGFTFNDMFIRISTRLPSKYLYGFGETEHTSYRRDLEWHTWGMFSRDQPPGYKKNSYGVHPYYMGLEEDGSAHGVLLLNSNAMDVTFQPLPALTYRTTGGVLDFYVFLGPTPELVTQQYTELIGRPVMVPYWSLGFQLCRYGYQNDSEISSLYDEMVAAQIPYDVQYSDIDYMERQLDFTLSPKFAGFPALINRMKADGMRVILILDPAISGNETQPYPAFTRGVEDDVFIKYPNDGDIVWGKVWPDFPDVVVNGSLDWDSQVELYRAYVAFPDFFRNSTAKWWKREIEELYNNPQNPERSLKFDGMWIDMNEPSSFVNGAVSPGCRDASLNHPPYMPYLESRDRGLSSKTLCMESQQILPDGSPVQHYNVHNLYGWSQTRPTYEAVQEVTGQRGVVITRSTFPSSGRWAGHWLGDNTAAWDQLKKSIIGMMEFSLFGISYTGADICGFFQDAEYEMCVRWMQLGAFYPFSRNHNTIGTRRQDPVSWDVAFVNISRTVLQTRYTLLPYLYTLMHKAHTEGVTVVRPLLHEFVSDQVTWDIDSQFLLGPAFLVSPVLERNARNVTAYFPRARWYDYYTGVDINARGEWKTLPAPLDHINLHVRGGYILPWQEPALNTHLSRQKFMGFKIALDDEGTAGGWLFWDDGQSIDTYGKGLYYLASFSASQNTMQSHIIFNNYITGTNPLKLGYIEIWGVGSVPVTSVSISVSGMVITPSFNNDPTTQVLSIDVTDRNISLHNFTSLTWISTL
Sequence of Soluble maltase-glucoamylase (Q6XK23 whole entry): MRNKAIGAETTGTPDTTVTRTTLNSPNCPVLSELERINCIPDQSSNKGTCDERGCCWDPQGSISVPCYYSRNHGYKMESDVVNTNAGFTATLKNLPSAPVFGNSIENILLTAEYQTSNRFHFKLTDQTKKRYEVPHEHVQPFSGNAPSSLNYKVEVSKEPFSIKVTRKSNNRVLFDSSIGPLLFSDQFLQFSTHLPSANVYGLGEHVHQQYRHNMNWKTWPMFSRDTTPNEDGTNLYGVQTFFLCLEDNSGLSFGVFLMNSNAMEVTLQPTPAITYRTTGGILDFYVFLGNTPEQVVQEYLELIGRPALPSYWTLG

The IC50 is the concentration needed to halve the response being measured. High values mean weaker potency in that assay, low ones greater potency in that assay. Take `CC(C)[C@H](NC(=O)[C@H](Cc1c[nH]c2ccccc12)NC(=O)[C@@H]1CSCC(=O)N[C@@H](Cc2ccc(O)cc2)C(=O)N2CCC[C@H]2C(=O)N[C@@H](Cc2ccc(O)cc2)C(=O)N[C@@H](CO)C(=O)N1)C(=O)N[C@@H](CCCNC(=N)N)C(=O)N[C@@H](Cc1cnc[nH]1)C(N)=O` [piHA-Dm] (HELM PEPTIDE1{[O=C(C[*:3])[*:2]].Y.P.Y.S.C.W.V.R.H.[am]}$PEPTIDE1,PEPTIDE1,1:R3-6:R3$$$V2.0): the IC50 stood at 990 nM in experiment [1], 520 nM in experiment [2] and 8.5 nM in experiment [3].
A word on the Ki: it is a measure of affinity in units of concentration, obtained from inhibition or displacement. Low readings indicate higher affinity, high ones lower affinity. Take `CC(C)[C@H](NC(=O)[C@H](Cc1c[nH]c2ccccc12)NC(=O)[C@H](CS)N1SCC(=O)N[C@@H](Cc2ccc(O)cc2)C(=O)N2CCC[C@H]2C(=O)N[C@@H](Cc2ccc(O)cc2)C(=O)N[C@@H](CO)C1=O)C(=O)N[C@@H](CCCNC(=N)N)C(=O)N[C@@H](Cc1cnc[nH]1)C(=O)N[C@@H](CO)C(=O)N[C@@H](CC(=O)O)C(=O)N1CCC[C@H]1C(=O)N[C@@H](Cc1cnc[nH]1)C(=O)N[C@@H](CCCCN)C(=O)N[C@@H](Cc1ccccc1)C(N)=O` [piHA-D3]: the affinity in experiment [4], expressed as Ki, was 2.7 nM.
Consider `CC[C@H](C)[C@H](NC(=O)[C@H](CCCNC(=N)N)NC(=O)[C@@H](NC(=O)[C@H](Cc1cnc[nH]1)NC(=O)[C@H](CCCNC(=N)N)NC(=O)[C@H](C)NC(=O)[C@H](Cc1c[nH]c2ccccc12)NC(=O)[C@H](CS)N1SCC(=O)N[C@@H](Cc2ccc(O)cc2)C(=O)N2CCC[C@H]2C(=O)N[C@@H](Cc2ccc(O)cc2)C(=O)N[C@@H](CO)C1=O)C(C)C)C(=O)N[C@@H](CCCNC(=N)N)C(=O)N[C@H](CCC(=O)O)C(=O)N[C@@H](CC(N)=O)C(N)=O` [piHA-D1], for which affinity in experiment [4] was put at a Ki of 1 nM.
The molecule `CC(C)[C@H](NC(=O)[C@H](Cc1c[nH]c2ccccc12)NC(=O)[C@H](CS)N1SCC(=O)N[C@@H](Cc2ccc(O)cc2)C(=O)N2CCC[C@H]2C(=O)N[C@@H](Cc2ccc(O)cc2)C(=O)N[C@@H](CO)C1=O)C(=O)N[C@@H](CCCNC(=N)N)C(=O)N[C@@H](Cc1cnc[nH]1)C(N)=O` [piHA-Dm] displayed a Ki in experiment [4] of 7 nM. This molecule gave an IC50 in experiment [5] of 34 nM.

Values taken from BindingDB's records for doi:10.1016/j.chembiol.2017.02.001 (The University of Tokyo, 2017).
